Entries after “also recorded” stand apart in the source; their conditions may differ.
Tests used:
[1] = Hepatic microsome stability assay, human; format: in vitro ADME
Experimental: Hepatic Microsome Assay. Hepatic microsomes stability assays were performed in accordance with known methods (Peddibhotla, et al. (2013) ACS Med. Chem. Lett. 4:846-851). Briefly, 3 μL of 25 μM compound solution in acetonitrile were incubated with 123 μL of mouse, human or rat liver microsomes (Xenotech, Kansas City, KS). After preincubation at 37° C. for 10 minutes, enzyme reactions were initiated by adding 120 !at of NADPH-generating system (2 mM NADP+, 10 mM glucose-6-phosphate, 0.4 U/ml glucose-6-phosphate dehydrogenase, and 5 mM MgCl2) in the presence of 100 mM potassium phosphate buffer (pH 7.4). […] The microsomal concentrations used were 1.0 mg/mL. Compounds were incubated in microsomes for 0, 5, 15, 30 and 60 minutes. The reactions were stopped by the addition of ice cold ACN and the reaction mixtures were centrifuged at 10,000 g for 10 minutes before the supernatant was removed for analysis. A 10 μL portion of the resulting extract was injected on a Thermo HPLC system equipped with PAL CTC plate sampler (96-well plate), Dionex Ultimate 3000 binary pump (flow rate at 0. 600 mL/min), Dionex Ultimate 3000 thermostatted column compartment (temperature at 40° C.), Thermo Endura Mass Spectrometer (ESI source), using a Thermo Scientific Accucore C18 (2.6 μM, 2.1×50 mm) column. A gradient was run starting at 95% H2O (0.1% formic acid) and 5% ACN (0. 1% formic acid) during the first 0. 5 min, then under gradient condition of 5-100% ACN (0.1% formic acid) from minute 0. 5 to 3.5, finishing at 95% H2O (0.1% formic acid) and 5% ACN (0.1% formic acid) over 0.5 min, with another 1 min at 95:5 to re-equilibrate.

[2] = in vivo; details: male, C57BL/6, mouse
Experimental: Bioavailability Determinations.
A blood sample from each mouse was drawn at 0.25, 0.5, 1, 2, 4, 6 and 24 hours after administration. An 8μL aliquot of blood was used for analysis. After adding 200 μL of an internal standard comprising 100 ng/mL Labetalol, 100 ng/mL dexamethasone, 100 ng/mL tolbutamide, 100 ng/mL Verapamil, 100 ng/mL Glyburide, and 100 ng/mL Celecoxib in ACN, the mixture was vortex-mixed and centrifuged at 12000 rpm for 15 minutes at 4° C. to pellet precipitated protein. Four μL at of the supernatant was injected for LC-MS/MS analysis. Bioavailability (%) was calculated using AUC0-inf(% AUCExtra<20%) or AUC0-last, (% AUCExtra >20%) with nominal dose.

[3] = system: insulin mRNA; assay: Insulin mRNA levels by quantitative PCR; format: cell-based; details: FIG. 2
Experimental: (§1) Expression of Insulin and HNF4α. RNA was purified using a RNEASY® chromatographic separation and isolation kits (Qiagen), and converted to cDNA using the gScript™ cDNA SuperMix (Quanta Biosciences). Q-PCR was conducted with cDNA corresponding to 2 μg of RNA using an Opticon Real-Time System (MJ Research) and QPCR SuperMix (BioPioneer). See All mRNA values were normalized to 18S rRNA values and are expressed as fold changes over vehicle-treated control.

[4] = system: T6PNE cells; assay: Lipid clearance (steatosis assay) in T6PNE cells; format: cell-based
Experimental: T6PNE cells were pretreated for 1 day with 0.06 mM, 0.12 mM or 0.25 mM palmitate at which time 15 μM N-trans-caffeoyltyramine or control (DMSO) was added. Cells were harvested on day 3, 6 and 8 and subjected to staining with Nile Red and […]. Results are expressed as fold change in Nile Red staining: +palmitate/10% FBS medium (no palmitate).
(§2) Lipid Clearance in HepG2 and T6PNE Cells (Steatosis Assay). The steatosis assay was carried out as described (Kiselyuk, et al. (2012) Chem. Biol. 19(7):806-818) with the exception of the drug concentration, which was 20 μM for N-trans-caffeoyltyramine with 0.25 mM palmitate in HepG2 cell lines, and 10 μM of either N-trans-caffeoyltyramine, N-trans-caffeoyltyramine, or p-coumaroyltyramine, with 0.25 mM palmitate in T6PNE cell lines. Steatosis was assessed using the Oil Red O Method for Fats kits (Poly Scientific; Warrington, PA), per manufacturer's guidelines. Briefly, frozen tissue slides or fixed cells were incubated in neat propylene glycol for 2 minutes and Oil Red O solution for […] for slides or 1 hour for fixed cells, differentiated in 85% propylene glycol solution for 1 minute, washed twice with distilled water and stained in Hematoxylin of 10 seconds. Slides were mounted with glycerin jelly mounting medium.

[5] = system: HepG2 cells; assay: Lipid clearance (steatosis assay) in HepG2 cells; format: cell-based; details: HepG2 liver cells, 20 μM
Experimental: as §2

[6] = system: E47MER; assay: Counter-screen for estrogenic activity (E47MER luciferase reporter in HeLa cells); format: cell-based, human; details: with 1 μM or without tamoxifen, FIG. 5
Experimental: Counter-Screen for Estrogenic Activity. Estrogenic activity was monitored by co-transfection of a reporter plasmid containing a multimerized E-box 5′ of a minimal promoter fused to the Firefly luciferase gene with wild-type E47 or E47MER (Kiselyuk, et al. (2010) J. Biomol. Screen 15(6):663-70). HeLa cells were transfected using polyethylenimine, 0.2 μg 4RTK-Luc plasmid and either 0.3 μg of human E47, E47MER or pMSCVhph vector in 50 μl of serum-free Dulbecco's modification of Eagle medium per well. Transfections included Renilla luciferase (pRL-TK) plasmid as a control for transfection efficacy. Transfection conditions were as described in the PPRE-Luc reporter assay of Kiselyuk, et al. ((2010) J. Biomol. Screen 15(6):663-70). Sixteen hours after transfection, culture media were changed and maintained for 48 hours with tamoxifen and/or compound or vehicle (DMSO). Cells were then lysed and assayed for luciferase activity using the Promega DUAL-LUCIFERASE® reporter assay kit (Promega Corp., Madison, WI), and luminescence was measured using the Veritas™ Microplate Luminometer (Turner Biosystems, Sunnyvale, CA). Data were normalized to Renilla luciferase (pRL-TK) and expressed as fold-change over vehicle alone.

[7] = system: HNF4α mRNA; assay: HNF4α mRNA levels by quantitative PCR; format: cell-based; details: FIG. 3
Experimental: as §1

O=C(/C=C/c1ccc(O)c(O)c1)NCCc1ccc(O)cc1 [N-trans-caffeoyltyramine]
apparent major biotransformation pathway ([1]; human microsomes): oxidation of the left-hand aryl ring
% Remaining ([1]; human microsomes, 1 μM): 55.3%
% Remaining ([1]; human microsomes, 10 μM): 85.4%
stability in hepatic microsomes ([1]; human, rat and mouse hepatic microsomes): stable
half-life at 1 μM ([1]; liver microsomes, pH 7.4, human microsomes, 1 μM): 1.29 h
microsomal CLint at 1 μM ([1]; liver microsomes, pH 7.4, human microsomes, 1 μM, read-out: Clearance Rate): 17.9 µL/min/mg
half-life at 10 μM ([1]; liver microsomes, pH 7.4, human microsomes, 10 μM): 4.37 h
microsomal CLint at 10 μM ([1]; liver microsomes, pH 7.4, human microsomes, 10 μM, read-out: Clearance Rate): 5.3 µL/min/mg
bioavailability [2]: ~11%
insulin gene expression [3]: upregulated
lipid accumulation when palmitate was added prior to compound ([4]; T6PNE cells pretreated 1 day with 0.06-0.25 mM palmitate, 15 μM compound, Nile Red, FIG. 6): reduced lipid accumulation; also recorded: can reverse fat accumulation
fat accumulation ([4]; T6PNE cells, 0.25 mM palmitate, 10 μM compound): inhibition of fat accumulation
clearing of fats, Oil Red O staining [5]: capable of clearing harmful fats from the liver
accumulation of fats ([5]; 0.25 mM palmitate): inhibited accumulation of fats
estrogenic activity [6]: did not exhibit estrogenic activity
HNF4α gene expression [7]: upregulated
